Assays:
S. pneum AB 34 = experiment: MIC by agar incorporation method, S. pneum AB 34; type: cell-based, Streptococcus pneumoniae; parameters: unit not given here; settings: Mueller Hinton agar, 10^4 CFU/spot, 18 hours
S.aureus ATCC 25923 = experiment: MIC by agar incorporation method, S.aureus 25923; type: cell-based, Staphylococus aureus; parameters: unit not given here; settings: Mueller Hinton agar, 10^4 CFU/spot, 18 hours
MRSA 562 = experiment: MIC by agar incorporation method, MRSA 562; type: cell-based, Methicillin Resistant Staphylococcus aureus; parameters: unit not given here; settings: Mueller Hinton agar, 10^4 CFU/spot, 24 hours
Strep.pyog. ATCC 19615 = experiment: MIC by agar incorporation method, S.pyogenes 19615; type: cell-based, Streptococcus pyogenes; parameters: unit not given here; settings: Mueller Hinton agar, 10^4 CFU/spot, 18 hours
Source text: 6) Strep.pyog. ATCC 19615—Streptococcus pyogenes

VRE 6A = experiment: MIC by agar incorporation method, VRE 6A; type: cell-based, Enterococcus faecium; parameters: unit not given here; settings: Mueller Hinton agar, 10^4 CFU/spot, 18 hours
Source text: 4) Ent. faecium […]—Enterococcus faecium 6A Van®, Cipro®

MRSA 15187 = experiment: MIC by agar incorporation method, MRSA 15187; type: cell-based, Methicillin Resistant Staphylococcus aureus; parameters: unit not given here; settings: Mueller Hinton agar, 10^4 CFU/spot, 24 hours
Source text: 2) MRSA 15187—Methicillin Resistant Staphylococcus aureus

Strep. pne. ATCC 6303 = experiment: MIC by agar incorporation method, S. pneum 6303; type: cell-based, Streptococcus pneumoniae; settings: Mueller Hinton agar, 10^4 CFU/spot, 18 hours
Source text: 5) Strep. pne. ATCC 6303—Streptococcus pneumoniae ATCC 6303

MRSA 33 = experiment: MIC by agar incorporation method, MRSA 33; type: cell-based, Methicillin Resistant Staphylococcus aureus; parameters: unit not given here; settings: Mueller Hinton agar, 10^4 CFU/spot, 24 hours
Ent. faecalis ATCC 29212 = experiment: MIC by agar incorporation method, E.faecalis 29212; type: cell-based, Enterococcus faecalis; parameters: unit not given here; settings: Mueller Hinton agar, 10^4 CFU/spot, 18 hours
Source text: 3) Ent. faecalis ATCC 29212—Enterococcus faecalis ATCC 29212

SMILES | In Vitro (MIC) S. pneum AB 34 (S. pneum AB 34) | In Vitro (MIC) S.aureus 25923 (S.aureus ATCC 25923) | In Vitro (MIC) MRSA 562 (MRSA 562) | In Vitro (MIC) S.pyogenes 19615 (Strep.pyog. ATCC 19615) | In Vitro (MIC) VRE 6A (VRE 6A) | In Vitro (MIC) MRSA 15187 (MRSA 15187) | In Vitro (MIC) S. pneum 6303 (Strep. pne. ATCC 6303) | In Vitro (MIC) MRSA 33 (MRSA 33) | In Vitro (MIC) E.faecalis 29212 (Ent. faecalis ATCC 29212)
CC(=O)NC[C@H]1CN(c2ccc(N3CCC(CN(C)Cc4ccc([N+](=O)[O-])o4)CC3)c(F)c2)C(=O)O1 [Compound No. 93] | 4 | 2 | 1 | 1 | 4 | 1 | 4 µg/mL | 1 | 2
CC(=O)NC[C@H]1CN(c2ccc(N3CCC(CN(C)Cc4ccc([N+](=O)[O-])s4)CC3)c(F)c2)C(=O)O1 [Compound No. 94] | 8 | 4 | 2 | 4 | 4 | 2 | 4 µg/mL | 2 | 4
CC(=O)NC[C@H]1CN(c2ccc(N3CC4C(CNCc5ccc([N+](=O)[O-])o5)C4C3)c(F)c2)C(=O)O1 (stereo partly drawn) [Compound No. 99, (S)-N-[[3-[3-Fluoro-4[N-1-[3-{N-2-furyl-(5-nitro)methyl}-aminomethyl]-3-azabicyclo[3.1.0]hexane]phenyl]-2-oxo-5-oxazolidinyl]methyl]acetamide] | 4 | >8 | >8 | 2 | 8 | >8 | 4 µg/mL | >8 | >8

Results, then the molecule that gave them:

In Vitro (MIC) S. pneum AB 34 (S. pneum AB 34) | In Vitro (MIC) S.aureus 25923 (S.aureus ATCC 25923) | In Vitro (MIC) MRSA 562 (MRSA 562) | In Vitro (MIC) S.pyogenes 19615 (Strep.pyog. ATCC 19615) | In Vitro (MIC) VRE 6A (VRE 6A) | In Vitro (MIC) MRSA 15187 (MRSA 15187) | In Vitro (MIC) S. pneum 6303 (Strep. pne. ATCC 6303) | In Vitro (MIC) MRSA 33 (MRSA 33) | In Vitro (MIC) E.faecalis 29212 (Ent. faecalis ATCC 29212) | SMILES
4 | 16 | 8 | 4 | 8 | 16 | 4 µg/mL | 16 | 8 | CC(=O)NC[C@H]1CN(c2ccc(N3CCCC(=O)C3)c(F)c2)C(=O)O1 [Compound No. 96, (S)-N-[[3-{3-Fluoro-4-(3-oxo-piperidin-1-yl)-phenyl}-2-oxo-5-oxazolidinyl]methyl]acetamide]
2 | 0.5 | 0.5 | 2 | 0.5 | 0.5 | 2 µg/mL | 0.5 | 0.5 | CC(=O)NC[C@H]1CN(c2ccc(N3CCN(C(C)c4ccc([N+](=O)[O-])s4)CC3)c(F)c2)C(=O)O1 (stereo partly drawn) [Compound No. 100]
2 | 1 | 1 | 0.06 | 0.25 | 1 | 1 µg/mL | 1 | 0.125 | CC(=O)NC[C@H]1CN(c2ccc(N3CCN(C(C)c4ccc([N+](=O)[O-])o4)CC3)c(F)c2)C(=O)O1 (stereo partly drawn) [Compound No. 101]

— patent publication US20040242591A1, “Oxazolidinone derivatives as pontential antimicrobials” (priority 2001, published 2004)
